Phosphoproteome change data for one compound are collected here from patent US20240016781A1, “TREATMENT OF KRAS MUTANT CANCERS” (MEI Pharma, Inc., priority 2020, published 2024).

The subject of this experiment is MIA Paca-2 cells. Nature of the experiment: Voruciclib-sensitive phosphoproteome (TMT, LC-MS/MS). The following applies: voruciclib 4 μM over time. In kind it is cell-based. How it is done: Cells were treated with voruciclib (4 μM) over time. (FIG. 31A) Summary of peptide quantification after TMT labelling and analysis by LC-MS/MS. (FIG. 31B) Volcano plots of phosphosites (log 2 fold change vs −log 10 p-value).
To define the CDK9-dependent phosphoproteome, cells are treated for a short time period with VOR followed by harvesting of the cells, IMAC enrichment, 16-plex isobaric tagging, and analysis by LC/MS/MS. A time course or different doses or drug combinations for the conditions can be performed. This experiment provides insight into novel CDK9 substrates and inroads into possible therapeutic areas for CDK9 inhibition by VOR.

For the compound `CN1CC[C@@H](c2c(O)cc(O)c3c(=O)cc(-c4ccc(C(F)(F)F)cc4Cl)oc23)[C@@H]1CO` [Voruciclib, (+)-trans-2-(2-Chloro-4-trifluoromethylphenyl)-5,7-dihydroxy-8-(2-hydroxymethyl-1-methylpyrrolidin-3-yl)-chromen-4-one], the phosphoproteome change entry is given as “rapid downregulation of phosphoproteins controlling transcription of MYC”.
